In US4906621A, “Certain 2-carboxypiperidyl-alkylene phosphonic acids and esters thereof useful for the treatment of disorders responsive to N-methyl-D-aspartate receptor blockade” (Ciba-Geigy Corporation, priority 1987, dated 1990):
pIC50: −log10 of the molar value.

Key:
[1] = tested on: NMDA-type excitatory amino acid receptors; assay: inhibition of NMDA-evoked 3H-acetylcholine release from rat striatal tissue slices; type: cell-based; conditions: stimulation with 50 uM NMDA, read-out: IC50 in the in vitro NMDA-evoked 3H-ACh release test
Method: The inhibitory effect on the NMDA-type excitatory amino acid receptors is determined in vitro by measuring the inhibition of the NMDA-evoked ^3 H-acetylcholine (^3 H-ACh) release from corpus striatum tissue of rat brain, according to J. Lehmann and B. Scatton, Brain Research 252, 77-89 (1982) and Nature 297, 422-424 (1982).
Antagonists of NMDA-type excitatory amino acid receptors competitively antagonize NMDA-evoked ^3 H-acetylcholine (^3 H-ACh) release from corpus striatum tissue of the brain.
The inhibition of the NMDA-evoked ^3 H-acetylcholine (^3 H-ACh) release from rat striatal tissue slices by a compound of the invention is expressed as % of release of ^3 H-ACh in response to stimulation with 50 uM NMDA compared to control. Tests are two-tailed with a minimum of n=4 in each group. In IC50 values represent the concentration of test compound required to inhibit the NMDA-increased ^3 H-ACh release by 50%.

DBA/2 mice = assay: audiogenic-induced seizures in DBA/2 mice; type: in vivo; conditions: Mus musculus, ip, 0.75 h, i.p. administration, read-out: ED50 in the audiogenic-induced seizure model
Method: Further indicative of the anticonvulsant activity, compounds of the invention are effective in preventing audiogenic-induced seizures in DBA/2 mice (Chapman et al., Arzneim.-Forsch. 34:1261, 1984).
The effect is determined as follows:
Forty-five minutes following compound or vehicle administration, mice are placed individually in a soundproof chamber. After a 30 second accommodation period, the mice are exposed to a sound stimulation of 110 dB for 1 minute or until the appearance of a tonic-clonic seizure. Control seizures consist of an initial wild running phase. The prevention of wild running is indicative of an anticonvulsant effect.
Test compounds in either distilled water solution or in a 3% (w/v) colloidal cornstarch suspension containing 5% (w/v) polyethyleneglycol 400 and 0.34% (w/v) Tween 80, are administered by oral intubation or intraperitoneally in a volume of 10 ml/kg of body weight.

[2] = relative pharmacological activity of enantiomers (test not specified); conditions: enantiomers of the compound of Example 2
[3] = Cook/Davidson conflict model for anxiolytic activity; type: in vivo; conditions: ip; read-out: dose active in the Cook/Davidson test for anxiolytic activity
Excerpt: Indicative of anxiolytic activity, compounds of the invention are effective in the Cook/Davidson conflict model (Psychopharmacologia 15, 159-168 (1969).

mongolian gerbil = mongolian gerbil ischemia model; type: in vivo; conditions: 10 mg/Kg ip, administered either before or after the ischemia episode
Excerpt: The cerebral antiischemic activity, that is the effect of the compounds of the invention in preventing or reducing brain damage in mammals due to a transient cerebral ischemia (as in a stroke) can be determined in the mongolian gerbil ischemia model, e.g. the model described by T. Kirino, Brain Research 239, 57-69 (1982).
The inhibitory effect on the observed hyperactivity and on the degeneration of neurons in the hippocampus region of the brain following a 5-minute period of ischemia is measured.
The test compound is administered i.p. 15 minutes before the ischemia or 2, 4, and 6 hours post ischemia.

O=C(O)[C@@H]1C[C@H](CP(=O)(O)O)CCN1 (relative stereo) [cis-4-phosphonomethyl-2-piperidinecarboxylic acid hyrdochloride]
pIC50 [1]: ~5.10 | ED50 (DBA/2 mice): ~1.8 mg/kg

O=C(O)[C@H]1C[C@@H](CP(=O)(O)O)CCN1 (single isomer, unassigned) [(+)-cis-4-phosphonomethyl-2-piperidinecarboxylic acid]
pharmacological activity relative to the other enantiomer [2]: less active enantiomer

O=C(O)[C@H]1C[C@@H](CP(=O)(O)O)CCN1 (single isomer, unassigned) [(-)-cis-4-phosphonomethyl-2-piperidinecarboxylic acid]
pharmacological activity relative to the other enantiomer [2]: more active enantiomer

O=C(O)[C@H]1C[C@@H](CP(=O)(O)O)CCN1 (relative stereo) [cis-4-phosphonomethyl-2-piperidine-carboxylic acid]
minimal effective dose [3]: ~2 mg/kg | effect on degeneration of cerebral neurons in the hippocampus region of the brain (mongolian gerbil): reduces the degeneration of cerebral neurons | effect on ischemia-induced hyperactivity of the gerbil (mongolian gerbil): inhibits the ischemia-induced hyperactivity
